Target: human F508del-CFTR (Homo sapiens, UniProt P13569, DEL508-508)
Assay: F508del-CFTR cell surface expression (corrector activity), DiscoveRx ß-galactosidase complementation chemiluminescence assay in recombinant U2OS cell line;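 also: U2OS cells co-expressing ProLink-tagged F508del-CFTR and a membrane-anchored enzyme acceptor, where more surface CFTR restores β-galactosidase activity measured by chemiluminescence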
Conditions: U2OS cell line, 16h compound incubation; for EC50: EC50, F508del-CFTR cell surface expression, geomean values; for Emax: U2OS, in relation to the Emax of the corrector lumacaftor (=100%), arithmetic mean values

Sequence of human F508del-CFTR (P13569 with tags, fused parts or gaps DEL508-508): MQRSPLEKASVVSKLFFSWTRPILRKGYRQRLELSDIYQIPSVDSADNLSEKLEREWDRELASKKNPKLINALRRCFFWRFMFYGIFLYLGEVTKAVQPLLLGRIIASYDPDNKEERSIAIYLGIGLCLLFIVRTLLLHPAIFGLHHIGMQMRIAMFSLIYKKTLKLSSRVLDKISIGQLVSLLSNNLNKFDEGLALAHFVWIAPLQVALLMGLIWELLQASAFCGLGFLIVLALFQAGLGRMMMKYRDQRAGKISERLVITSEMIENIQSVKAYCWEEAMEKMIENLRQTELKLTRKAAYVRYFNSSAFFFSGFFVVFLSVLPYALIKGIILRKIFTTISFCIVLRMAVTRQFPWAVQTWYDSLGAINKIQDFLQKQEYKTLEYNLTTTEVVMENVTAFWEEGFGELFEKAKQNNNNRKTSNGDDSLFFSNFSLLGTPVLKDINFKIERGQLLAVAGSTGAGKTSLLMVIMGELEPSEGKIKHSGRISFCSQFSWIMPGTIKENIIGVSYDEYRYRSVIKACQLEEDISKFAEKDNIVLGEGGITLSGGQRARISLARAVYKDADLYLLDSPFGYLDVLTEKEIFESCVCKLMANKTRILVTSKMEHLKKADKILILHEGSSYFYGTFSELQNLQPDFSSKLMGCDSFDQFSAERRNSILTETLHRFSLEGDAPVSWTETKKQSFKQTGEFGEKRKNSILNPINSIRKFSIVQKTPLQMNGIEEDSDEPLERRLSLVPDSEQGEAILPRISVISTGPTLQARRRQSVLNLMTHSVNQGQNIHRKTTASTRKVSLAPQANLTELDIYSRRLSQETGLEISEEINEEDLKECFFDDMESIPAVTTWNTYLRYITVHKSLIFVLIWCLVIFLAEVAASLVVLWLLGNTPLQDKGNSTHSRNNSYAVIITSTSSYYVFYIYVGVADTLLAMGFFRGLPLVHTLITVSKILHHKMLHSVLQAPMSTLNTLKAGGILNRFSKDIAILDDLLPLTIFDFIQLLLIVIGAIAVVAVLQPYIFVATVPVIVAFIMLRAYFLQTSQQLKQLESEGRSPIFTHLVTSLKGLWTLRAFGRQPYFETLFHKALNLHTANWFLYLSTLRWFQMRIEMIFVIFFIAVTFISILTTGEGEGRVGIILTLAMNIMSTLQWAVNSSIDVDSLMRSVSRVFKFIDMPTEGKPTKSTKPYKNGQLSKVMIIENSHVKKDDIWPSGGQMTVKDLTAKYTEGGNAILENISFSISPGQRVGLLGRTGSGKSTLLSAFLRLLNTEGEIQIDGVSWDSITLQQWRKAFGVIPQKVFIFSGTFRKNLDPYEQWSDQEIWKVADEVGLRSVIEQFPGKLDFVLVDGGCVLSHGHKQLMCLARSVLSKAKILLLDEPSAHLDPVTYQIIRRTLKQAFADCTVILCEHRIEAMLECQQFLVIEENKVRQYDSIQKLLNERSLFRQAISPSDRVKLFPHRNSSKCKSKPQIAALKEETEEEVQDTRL

Compound	EC50 [nM]	Emax [%]
CC(C)C[C@H]1C(=O)N2CCOC[C@@H]2C(=O)N[C@H](Cc2ccccc2)COc2ccc3ccccc3c2C(=O)N[C@H](C(=O)NCCc2noc(C3CC3)n2)CC(=O)N1C [Example 45, (4aR,7R,18S,22S)-7-benzyl-N-(2-(5-cyclopropyl-1,2,4-oxadiazol-3-yl)ethyl)-22-isobutyl-21-methyl-5,16,20,23-tetraoxo-1,2,4,4a,5,6,7,8,16,17,18,19,20,21,22,23-hexadecahydronaphtho[1,2-p][1,4]oxazino[3,4-f][1]oxa[4,7,10,14]tetraazacycloheptadecine-18-carboxamide]	682	324
CC(C)C[C@H]1C(=O)N2CCOC[C@@H]2C(=O)N[C@H](Cc2ccccc2)COc2cnc3ccccc3c2C(=O)N[C@H](C(=O)NCCc2csc(C(C)C)n2)CC(=O)N1C [Example 46, (9S,13S,19aR,22R)-22-benzyl-13-isobutyl-N-(2-(2-isopropylthiazol-4-yl)ethyl)-12-methyl-7,11,14,20-tetraoxo-7,8,9,10,11,12,13,14,16,17,19,19a,20,21,22,23-hexadecahydro-[1,4]oxazino[3′,4′:6,7][1]oxa[4,7,10,14]tetraazacycloheptadecino[17,16-c]quinoline-9-carboxamide]	679	137
CCc1ccc(CCNC(=O)[C@@H]2CC(=O)N(C)[C@@H](CC(C)C)C(=O)N3CCOC[C@@H]3C(=O)N[C@H](Cc3ccccc3)COc3cnc4ccccc4c3C(=O)N2)cc1 [Example 47, (9S,13S,19aR,22R)-22-benzyl-N-(4-ethylphenethyl)-13-isobutyl-12-methyl-7,11,14,20-tetraoxo-7,8,9,10,11,12,13,14,16,17,19,19a,20,21,22,23-hexadecahydro-[1,4]oxazino[3′,4′:6,7][1]oxa[4,7,10,14]tetraazacycloheptadecino[17,16-c]quinoline-9-carboxamide]	213	247
CC(C)C[C@H]1C(=O)N2CCOC[C@@H]2C(=O)N[C@H](Cc2ccccc2)COc2cnc3ccccc3c2C(=O)N[C@H](C(=O)NCCc2ccc(C(C)(C)C)cc2)CC(=O)N1C [Example 48, (9S,13S,19aR,22R)-22-benzyl-N-(4-(tert-butyl)phenethyl)-13-isobutyl-12-methyl-7,11,14,20-tetraoxo-7,8,9,10,11,12,13,14,16,17,19,19a,20,21,22,23-hexadecahydro-[1,4]oxazino[3′,4′:6,7][1]oxa[4,7,10,14]tetraazacycloheptadecino[17,16-c]quinoline-9-carboxamide]	409	151
CC(C)C[C@H]1C(=O)N2CCOC[C@@H]2C(=O)N[C@H](Cc2ccccc2)COc2cnc3ccccc3c2C(=O)N[C@H](C(=O)NCCc2ccc(Br)cc2)CC(=O)N1C [Example 49, (9S,13S,19aR,22R)-22-benzyl-N-(4-bromophenethyl)-13-isobutyl-12-methyl-7,11,14,20-tetraoxo-7,8,9,10,11,12,13,14,16,17,19,19a,20,21,22,23-hexadecahydro-[1,4]oxazino[3′,4′:6,7][1]oxa[4,7,10,14]tetraazacycloheptadecino[17,16-c]quinoline-9-carboxamide]	347	136
CC(C)C[C@H]1C(=O)N2CCOC[C@@H]2C(=O)N[C@H](Cc2ccccc2)COc2cnc3ccccc3c2C(=O)N[C@H](C(=O)NCCc2ccccc2F)CC(=O)N1C [Example 50, (9S,13S,19aR,22R)-22-benzyl-N-(2-fluorophenethyl)-13-isobutyl-12-methyl-7,11,14,20-tetraoxo-7,8,9,10,11,12,13,14,16,17,19,19a,20,21,22,23-hexadecahydro-[1,4]oxazino[3′,4′:6,7][1]oxa[4,7,10,14]tetraazacycloheptadecino[17,16-c]quinoline-9-carboxamide]	558	256
CC(C)C[C@H]1C(=O)N2CCOC[C@@H]2C(=O)N[C@H](Cc2ccccc2)COc2cnc3ccccc3c2C(=O)N[C@H](C(=O)NCCc2cccc(Cl)c2)CC(=O)N1C [Example 51, (9S,13S,19aR,22R)-22-benzyl-N-(3-chlorophenethyl)-13-isobutyl-12-methyl-7,11,14,20-tetraoxo-7,8,9,10,11,12,13,14,16,17,19,19a,20,21,22,23-hexadecahydro-[1,4]oxazino[3′,4′:6,7][1]oxa[4,7,10,14]tetraazacycloheptadecino[17,16-c]quinoline-9-carboxamide]	352	187
CC(C)C[C@H]1C(=O)N2CCOC[C@@H]2C(=O)N[C@H](Cc2ccccc2)COc2cnc3ccccc3c2C(=O)N[C@H](C(=O)NCCc2cccc(Br)c2)CC(=O)N1C [Example 52, (9S,13S,19aR,22R)-22-benzyl-N-(3-bromophenethyl)-13-isobutyl-12-methyl-7,11,14,20-tetraoxo-7,8,9,10,11,12,13,14,16,17,19,19a,20,21,22,23-hexadecahydro-[1,4]oxazino[3′,4′:6,7][1]oxa[4,7,10,14]tetraazacycloheptadecino[17,16-c]quinoline-9-carboxamide]	348	176
CC(C)C[C@H]1C(=O)N2CCOC[C@@H]2C(=O)N[C@H](Cc2ccccc2)COc2cnc3ccccc3c2C(=O)N[C@H](C(=O)NCCc2ccc3c(c2)OCCO3)CC(=O)N1C [Example 53, (9S,13S,19aR,22R)-22-benzyl-N-(2-(2,3-dihydrobenzo[b][1,4]dioxin-6-yl)ethyl)-13-isobutyl-12-methyl-7,11,14,20-tetraoxo-7,8,9,10,11,12,13,14,16,17,19,19a,20,21,22,23-hexadecahydro-[1,4]oxazino[3′,4′:6,7][1]oxa[4,7,10,14]tetraazacycloheptadecino[17,16-c]quinoline-9-carboxamide]	596	404
CC(C)C[C@H]1C(=O)N2CCOC[C@@H]2C(=O)N[C@H](Cc2ccccc2)COc2cnc3ccccc3c2C(=O)N[C@H](C(=O)NCCc2ccc3c(c2)OCC3)CC(=O)N1C [Example 54, (9S,13S,19aR,22R)-22-benzyl-N-(2-(2,3-dihydrobenzofuran-6-yl)ethyl)-13-isobutyl-12-methyl-7,11,14,20-tetraoxo-7,8,9,10,11,12,13,14,16,17,19,19a,20,21,22,23-hexadecahydro-[1,4]oxazino[3′,4′:6,7][1]oxa[4,7,10,14]tetraazacycloheptadecino[17,16-c]quinoline-9-carboxamide]	558	373
CC(C)C[C@H]1C(=O)N2CCOC[C@@H]2C(=O)N[C@H](Cc2ccccc2)COc2cnc3ccccc3c2C(=O)N[C@H](C(=O)NCCc2ccc(-n3nccn3)cc2)CC(=O)N1C [Example 55, (9S,13S,19aR,22R)-N-(4-(2H-1,2,3-triazol-2-yl)phenethyl)-22-benzyl-13-isobutyl-12-methyl-7,11,14,20-tetraoxo-7,8,9,10,11,12,13,14,16,17,19,19a,20,21,22,23-hexadecahydro-[1,4]oxazino[3′,4′:6,7][1]oxa[4,7,10,14]tetraazacycloheptadecino[17,16-c]quinoline-9-carboxamide]	945	245
CC(C)C[C@H]1C(=O)N2CCOC[C@@H]2C(=O)N[C@H](Cc2ccccc2)COc2cnc3ccccc3c2C(=O)N[C@H](C(=O)NCCc2cccc(-n3nccn3)c2)CC(=O)N1C [Example 56, (9S,13S,19aR,22R)-N-(3-(2H-1,2,3-triazol-2-yl)phenethyl)-22-benzyl-13-isobutyl-12-methyl-7,11,14,20-tetraoxo-7,8,9,10,11,12,13,14,16,17,19,19a,20,21,22,23-hexadecahydro-[1,4]oxazino[3′,4′:6,7][1]oxa[4,7,10,14]tetraazacycloheptadecino[17,16-c]quinoline-9-carboxamide]	764	256
COc1cc(CCNC(=O)[C@@H]2CC(=O)N(C)[C@@H](CC(C)C)C(=O)N3CCOC[C@@H]3C(=O)N[C@H](Cc3ccccc3)COc3cnc4ccccc4c3C(=O)N2)cc(OC)c1 [Example 57, (9S,13S,19aR,22R)-22-benzyl-N-(3,5-dimethoxyphenethyl)-13-isobutyl-12-methyl-7,11,14,20-tetraoxo-7,8,9,10,11,12,13,14,16,17,19,19a,20,21,22,23-hexadecahydro-[1,4]oxazino[3′,4′:6,7][1]oxa[4,7,10,14]tetraazacycloheptadecino[17,16-c]quinoline-9-carboxamide]	414	315
CC(C)C[C@H]1C(=O)N2CCOC[C@@H]2C(=O)N[C@H](Cc2ccccc2)COc2cnc3ccccc3c2C(=O)N[C@H](C(=O)NCCc2ccccc2)CC(=O)N1C [Example 58, (9S,13S,19aR,22R)-22-benzyl-13-isobutyl-12-methyl-7,11,14,20-tetraoxo-N-phenethyl-7,8,9,10,11,12,13,14,16,17,19,19a,20,21,22,23-hexadecahydro-[1,4]oxazino[3′,4′:6,7][1]oxa[4,7,10,14]tetraazacycloheptadecino[17,16-c]quinoline-9-carboxamide]	759	175
COc1ccc(CCNC(=O)[C@@H]2CC(=O)N(C)[C@@H](CC(C)C)C(=O)N3CCOC[C@@H]3C(=O)N[C@H](Cc3ccccc3)COc3cnc4ccccc4c3C(=O)N2)c(F)c1 [Example 59, (9S,13S,19aR,22R)-22-benzyl-N-(2-fluoro-4-methoxyphenethyl)-13-isobutyl-12-methyl-7,11,14,20-tetraoxo-7,8,9,10,11,12,13,14,16,17,19,19a,20,21,22,23-hexadecahydro-[1,4]oxazino[3′,4′:6,7][1]oxa[4,7,10,14]tetraazacycloheptadecino[17,16-c]quinoline-9-carboxamide]	772	237
Cc1ccc(CCNC(=O)[C@@H]2CC(=O)N(C)[C@@H](CC(C)C)C(=O)N3CCOC[C@@H]3C(=O)N[C@H](Cc3ccccc3)COc3cnc4ccccc4c3C(=O)N2)cc1 [Example 60, (9S,13S,19aR,22R)-22-benzyl-13-isobutyl-12-methyl-N-(4-methylphenethyl)-7,11,14,20-tetraoxo-7,8,9,10,11,12,13,14,16,17,19,19a,20,21,22,23-hexadecahydro-[1,4]oxazino[3′,4′:6,7][1]oxa[4,7,10,14]tetraazacycloheptadecino[17,16-c]quinoline-9-carboxamide]	662	228
